Experimental data published in patent US20090318493A1 (Roche Palo Alto LLC, priority 2008, published 2009).
Like-named read-outs stand apart in the source and are kept apart here.

Assays:
Assay type in all cases: binding
[1] = biological target: T1, hDAT (Homo sapiens, UniProt Q01959); experiment: Human dopamine transporter scintillation proximity assay, competition with [3H]-Vanoxerine
T1 construct: expressed in transfected cells; plated whole cells
Procedure: This assay was used to determine the affinity of ligands for the dopamine transporter by competition with [^3H]-Vanoxerine.
Cells were plated four hours prior to experiment by placing approximately 30,000 cells per well (in PBS) on white, opaque Cell-Tak coated 96 well plates. Extra buffer was apriated from the cell plates using an ELx405 plate washer.
Compounds of the invention were diluted from 10 mM to 0.1 nM FAC (10 point curves, whole log/half log dilutions) via a Beckman Biomek 2000 using a 10-point dilution protocol. The mixtures were allowed to stand at room temperature for 30 minutes, and were then counted on a Packard TopCount LCS, a generic SPA counting protocol settings, Count Time (min.): 0.40, Background Subtract: none, Half-Life Correction: none, Quench Indicator: tSIS, Platemap blank subtraction: none, Cross talk reduction: Off).
The % inhibition was calculated for each compound tested [(Compound CPM at maximum concentration-Non-Specific CPM)/Total CPM*100].
(§1) where max=total binding, min=non specific binding, x=concentration (M) of the tested compound and n=Hill slope. The inhibition dissociation constant (Ki) of each compound was determined according to the method of Cheng-Prusoff and then converted into negative logarithm (pKi) of the Ki.

[2] = biological target: T2, hSERT transporter (Homo sapiens, UniProt P31645); experiment: Human serotonin transporter (hSERT) scintillation proximity assay, competition with [3H]-Citalopram
T2 construct: expressed in transfected cells; membranes prepared
Description: Screening for Human Serotonin Transporter (hSERT) Antagonists Using a Scintillation Proximity Assay (SPA)
The screening assay of this example was used to determine the affinity of ligands at the hSERT transporter by competition with [^3H]-Citalopram.
Scintillation Proximity Assay (SPA) works by bringing radioligand within close proximity to the bead's scintillant to stimulate light emission. In this assay, the receptor-containing membranes were pre-coupled to the SPA beads and the binding of the appropriate radioligand to the transporter was measured. The light emission was proportional to the amount of bound radioligand. Unbound radioligand produced no signal as a result of distant proximity to scintillant (lack of energy transfer).
Cells are released from culture flasks using PBS for 1-2 minutes. The cells were subsequently centrifuged at 1000 g's for 5 minutes and resuspended in PBS prior to being used in the membrane preparation.
(§2) Cell membranes were prepared using a membrane preparation buffer of 50 mM TRIS (pH 7.4). Cell membranes were prepared from a single cube (7.5×10^9 cells total). Cells were homogenized using a Polytron (setting medium for a 4 second burst). The homogenate was then centrifuged at 48,000×g for 15 minutes, the supernatant subsequently removed and discarded, and the pellet resuspended with fresh buffer. After a second centrifugation, the pellet was re-homogenized and brought to a final volume determined during the assay. Typically, membrane portions were aliquoted in 3 mg/ml (w:v). and stored at −80° C.
Compounds of the invention were diluted from 10 mM to 0.1 nM FAC (10 point curves, whole log/half log dilutions) via a Beckman Biomek 2000 using a serial dilution protocol. The test compounds were then transferred (20 μl/well) and the [^3H]-Citalopram radioligand was added at 50 μl/well. Membrane and beads were prepared to a ratio of 10 μg: 0.7 mg, with 0.7 mg PVT-WGA Amersham beads (Cat# RPQ0282V) added per well. 130 μl of the membrane: bead mixture was added to the assay plate.
The % inhibition was calculated for each compound tested [(Compound counts per minute (CPM) at maximum concentration-Non-Specific CPM)/Total CPM*100].
as §1

[3] = biological target: T3, hNET transporter (Homo sapiens, UniProt P23975); experiment: Human norepinephrine transporter (hNET) scintillation proximity assay, competition with [3H]-Nisoxetine
T3 construct: expressed in transfected cells; membranes prepared
Procedure: This assay was used to determine the affinity of ligands for the hNET transporter by competition with [^3H]-Nisoxetine. As in the hSERT assay of the above example, receptor-containing membranes were pre-coupled to the SPA beads and the binding of the appropriate radioligand to the transporter was measured. The light emission was proportional to the amount of bound radioligand, with unbound radioligand producing no signal.
HEK-293 cells (Tatsumi et al., Eur. J. Pharmacol. 1997, 30, 249-258) stably expressing recombinant hNET (Clone: HEK-hNET #2) were maintained with media (DMEM hi glucose with 10% FBS, 300 μg/ml G418 and 2 mM L-Glutamine) and incubated at 37° C. with 5% CO2. Cells were released from culture flasks using PBS for 1-2 minutes. The cells were subsequently centrifuged at 1000 g's for 5 minutes and resuspended in PBS prior to being used in the membrane preparation.
as §2, with “(7.5×10^9cells” for “(7.5×10^9 cells”, “3-6 mg/mil” for “3 mg/ml”
^3[H] […] Compounds of the invention were diluted from 10 mM to 0.1 nM FAC (10 point curves, whole log /half log dilutions) via a Beckman Biomek 2000 using a serial dilution protocol. The test compounds were then transferred (20 μl/well) and the radioligand was added at 50 μl/well. Membrane and beads were prepared to a ratio of 10 μg: 0.7 mg, with 0.7 mg PVT-WGA Amersham beads (Cat# RPQ0282V) added per well. 130 μl of the membrane: bead mixture was added to the assay plate. The mixtures were allowed to stand at room temperature for one hour, and were then counted on a Packard TopCount LCS, a generic SPA counting protocol settings (Energy Range: Low, Efficiency Mode: Normal, Region A: 1.50-35.00, Region B: 1.50-256.00, Count Time (min.): 0.40, Background Subtract: none, Half-Life Correction: no, Quench Indicator: tSIS, Platemap blank subtraction: No, Cross talk reduction: Off).
The % inhibition was calculated for each compound tested [(Compound CPM at maximum concentration-Non-Specific CPM)/Total CPM*100]. The concentration producing 50% inhibition (IC50) was determined using an iterative non-linear curve fitting technique with Activity Base/Xlfit using the following equation:
as §1

[4] = Table 1, read-out: pIC50 NET (converted)
[5] = Table 1, read-out: pIC50 DAT (converted)
[6] = Table 1, read-out: pIC50 SERT (converted)

T3 sequence (P23975 whole entry): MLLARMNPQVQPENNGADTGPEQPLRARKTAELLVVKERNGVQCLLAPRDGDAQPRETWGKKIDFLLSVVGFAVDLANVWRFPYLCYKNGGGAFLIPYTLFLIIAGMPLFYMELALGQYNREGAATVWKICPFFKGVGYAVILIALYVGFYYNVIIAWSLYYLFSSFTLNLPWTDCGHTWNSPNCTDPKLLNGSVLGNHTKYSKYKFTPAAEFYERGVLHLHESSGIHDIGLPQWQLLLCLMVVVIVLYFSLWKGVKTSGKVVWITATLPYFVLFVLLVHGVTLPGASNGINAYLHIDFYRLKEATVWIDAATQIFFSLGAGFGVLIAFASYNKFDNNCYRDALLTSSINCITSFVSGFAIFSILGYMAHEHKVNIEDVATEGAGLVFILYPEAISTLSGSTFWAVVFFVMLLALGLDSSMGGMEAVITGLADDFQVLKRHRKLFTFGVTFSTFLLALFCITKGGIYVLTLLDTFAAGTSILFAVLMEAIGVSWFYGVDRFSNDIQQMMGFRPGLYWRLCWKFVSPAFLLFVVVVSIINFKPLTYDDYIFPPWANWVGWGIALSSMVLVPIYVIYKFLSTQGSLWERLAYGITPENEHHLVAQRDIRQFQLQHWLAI
T2 sequence (P31645 whole entry): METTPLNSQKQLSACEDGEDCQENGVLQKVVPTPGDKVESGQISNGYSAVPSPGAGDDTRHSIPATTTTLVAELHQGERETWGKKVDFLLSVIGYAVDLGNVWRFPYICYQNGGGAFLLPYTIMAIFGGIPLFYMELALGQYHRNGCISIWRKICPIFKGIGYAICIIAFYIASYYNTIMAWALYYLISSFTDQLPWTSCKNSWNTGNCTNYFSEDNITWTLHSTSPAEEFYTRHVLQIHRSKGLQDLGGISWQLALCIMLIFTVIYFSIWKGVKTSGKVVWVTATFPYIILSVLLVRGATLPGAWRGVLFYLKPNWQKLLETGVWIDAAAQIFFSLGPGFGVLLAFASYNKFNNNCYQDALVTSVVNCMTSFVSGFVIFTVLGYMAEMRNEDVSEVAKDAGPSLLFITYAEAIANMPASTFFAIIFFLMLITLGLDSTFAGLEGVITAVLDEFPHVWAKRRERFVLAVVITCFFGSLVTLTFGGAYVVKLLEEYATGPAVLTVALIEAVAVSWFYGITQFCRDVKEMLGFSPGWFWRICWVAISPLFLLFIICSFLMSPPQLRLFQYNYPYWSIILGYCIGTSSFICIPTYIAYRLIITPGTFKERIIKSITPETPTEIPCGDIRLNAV
T1 sequence (Q01959 whole entry): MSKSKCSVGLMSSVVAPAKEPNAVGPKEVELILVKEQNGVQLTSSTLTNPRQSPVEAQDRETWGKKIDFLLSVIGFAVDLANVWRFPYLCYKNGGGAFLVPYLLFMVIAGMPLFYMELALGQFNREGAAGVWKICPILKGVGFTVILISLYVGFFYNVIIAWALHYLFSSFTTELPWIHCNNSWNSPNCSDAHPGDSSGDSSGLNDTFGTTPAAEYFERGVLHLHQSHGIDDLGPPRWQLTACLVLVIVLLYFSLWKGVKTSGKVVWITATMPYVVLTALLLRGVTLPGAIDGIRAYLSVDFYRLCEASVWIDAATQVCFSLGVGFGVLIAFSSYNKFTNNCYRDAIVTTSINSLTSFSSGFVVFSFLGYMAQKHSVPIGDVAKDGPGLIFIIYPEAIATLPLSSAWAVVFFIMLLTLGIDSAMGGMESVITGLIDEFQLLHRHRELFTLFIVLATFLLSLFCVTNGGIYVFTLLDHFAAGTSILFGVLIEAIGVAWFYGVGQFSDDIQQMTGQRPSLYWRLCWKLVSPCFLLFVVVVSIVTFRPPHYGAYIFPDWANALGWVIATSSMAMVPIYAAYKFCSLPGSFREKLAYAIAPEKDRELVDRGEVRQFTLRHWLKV

Row | IC50 [2, 6] [nM] | SMILES | IC50 [1] [nM] | IC50 [2] [nM] | IC50 [3, 4] [nM] | IC50 [1, 5] [nM] | IC50 [3] [nM]
1 |  | O=C(c1ccc(Cl)c(Cl)c1)C1(CC2CCCO2)CCNCC1 (stereo not drawn) [Compound 42, (3,4-Dichloro-phenyl)-[4-(tetrahydro-furan-2-ylmethyl)-piperidin-4-yl]-methanone] | 3.63 | 1 | 47.9 |  | 
2 |  | O=C(c1ccccc1)C1(Cc2ccc(Cl)c(Cl)c2)CCNCC1 [Compound 43, [4-(3,4-Dichloro-benzyl)-piperidin-4-yl]-phenyl-methanone] |  | 75.9 | 1510 | 575 | 
3 |  | CNc1ccc(C(=O)C2(CC(C)C)CCNCC2)cc1Cl [Compound 44, (3-Chloro-4-methylamino-phenyl)-(4-isobutyl-piperidin-4-yl)-methanone] | 57.5 | 0.724 | 51.3 |  | 
4 | 2.4 | CC(C)CC1(C(=O)c2ccc(Cl)c(Oc3ccccc3)c2)CCNCC1 [Compound 45, (4-Chloro-3-phenoxy-phenyl)-(4-isobutyl-piperidin-4-yl)-methanone] |  |  | 2.57 | 34.7 | 
5 | 7.08 | CCCC1(C(=O)c2ccc(Cl)c(Oc3ccccc3)c2)CCNCC1 [Compound 46, (4-Chloro-3-phenoxy-phenyl)-(4-propyl-piperidin-4-yl)-methanone] |  |  | 11.5 | 30.2 | 
6 |  | CC(C)C[C@@]1(C(=O)c2ccc(Cl)c(Cl)c2)CC[C@@H]2CC[C@H]1N2 [Compound 47, (3,4-Dichloro-phenyl)-((1R,2S,5R)-2-isobutyl-8-aza-bicyclo[3.2.1]oct-2-yl)-methanone] | 24 | 7.94 | 200 |  | 
7 |  | CC[C@@]1(C(=O)c2ccc(Cl)c(Cl)c2)CC[C@@H]2CC[C@H]1N2 [Compound 48, (3,4-Dichloro-phenyl)-((1R,2R,5R)-2-ethyl-8-aza-bicyclo[3.2.1]oct-2-yl)-methanone] | 209 | 7.76 | 1150 |  | 
8 |  | CC[C@]1(C(=O)c2ccc(Cl)c(Cl)c2)CC[C@@H]2CC[C@H]1N2 [Compound 49, (3,4-Dichloro-phenyl)-((1R,2S,5R)-2-ethyl-8-aza-bicyclo[3.2.1]oct-2-yl)-methanone] | 1580 | 631 | 5130 |  | 
9 |  | CCCC1(C(=O)c2ccc(Cl)c(-c3ccn[nH]3)c2)CCCNC1 (stereo not drawn) [Compound 50, [4-Chloro-3-(2H-pyrazol-3-yl)-phenyl]-(3-propyl-piperidin-3-yl)-methanone] |  | 7.76 |  | 4270 | 30.9
10 | 18.6 | CCCC1(C(=O)c2ccc(Cl)c(N(C)c3ccccc3)c2)CCNCC1 [Compound 51, [4-Chloro-3-(methyl-phenyl-amino)-phenyl]-(4-propyl-piperidin-4-yl)-methanone] |  |  | 162 | 195 | 
11 |  | CC(C)(C)CCC1(C(=O)c2ccc(Cl)c(Cl)c2)CCCNC1 (stereo not drawn) [Compound 56, (3,4-Dichloro-phenyl)-[3-(3,3-dimethyl-butyl)-piperidin-3-yl]-methanone] | 15.1 | 17.4 | 32.4 |  | 
12 |  | CC(C)(C)CC[C@]1(C(=O)c2ccc(Cl)c(Cl)c2)CCCNC1 [Compound 59, (3,4-Dichloro-phenyl)-[(S)-3-(3,3-dimethyl-butyl)-piperidin-3-yl]-methanone] |  | 14.5 |  | 324 | 10.5
